Data set [1] has as its system human colon cancer cell lines (HT-29). Put plainly: CyQUANT cell proliferation assay, HT-29. The class given is cell-based. The conditions noted are these: HT-29, 72 hours. The text has this: (§1) In these experiments, desired number of cells were exposed to phosphaplatins of different concentrations for 72 hr. before measuring the DNA content. Because the DNA content is proportional to the number of surviving cells, the assay provides a quantitative measure of proliferating cells. The technique is described in detail in Jones et al., “Sensitive determination of cell number using the CyQUANT cell proliferation assay,” J. Immunol. Methods, vol. 254, pp. 85-98 (2001).
(§2) In TABLES 1-5, except where actual error values are given, each reported value is assumed to have an error not greater than ±15% of the reported value; and unless otherwise specified, the data were obtained from clonogenic assays.

Data set [2] relates to U251, human glioblastoma cancer cells. Put plainly: CyQUANT cell proliferation assay, U251. The conditions noted are these: U251, 72-hour treatment. Format: cell-based.
Source text: as §1, §2

Data set [3] deals with OVCAR-10, human ovarian cancer resistant to cisplatin treatment. Put plainly: Clonogenic assay, OVCAR-10 cells. Format: cell-based. To be noted: OVCAR-10, 24 hours treatment. On the procedure: (§3) To determine the relative activities of the phosphaplatins of formulas (I)-(VI), each stereoisomer was tested through in vitro clonogenic assays using human ovarian cancer cells, human colon cancer cells, and human head-and-neck cancer cells. […] Cells were cultured on monolayer using RPMI 1640 supplemented with 10% fetal bovine serum, 2 mM glutamine, 0.25 units/mL insulin and penicillin/streptomycin (100 units/mL) in a 37° C. incubator continuously gassed with 5% CO2. Cells were subcultured using 0.0625% trypsin in HBSS to maintain cells in exponential cell growth.
(§4) Half-maximal inhibitory concentration (IC50) values were determined using a clonogenic assay or a CyQUANT® cell proliferation assay. In the clonogenic assay, for example, 500-700 A2780 cells from a single cell suspension were plated onto 60 mm petri plates 24 hours before treatment with the platinum compounds to permit cell attachment. On the day of treatment with the platinum compounds described in the above Synthesis Examples, the medium was decanted and was replaced with the appropriate concentration of phosphaplatin compounds (from 50 nM to 75 μM) at three different time points, and the treated cells were placed back into the 37° C. incubator for 24 hours. Triplicate plates were set up for each platinum compound concentration. After the 24-hour treatment, the medium containing the platinum compounds was decanted and was replaced with fresh medium. These plates were returned to the 37° C. incubator for 7 days for colony formation.
as §2
(§5) In further tests, cells were treated with the platinum compounds continuously for 7 days. Colonies were fixed and stained using 2% crystal violet in 4% formaldehyde. Colonies containing more than 50 cells were scored. The number of scored colonies from the triplicate plates was averaged, and this number was divided by the number of cells plated to obtain a value for the fraction of cells forming colonies. These values for fraction of cells forming colonies then were corrected for plating efficiency by dividing the fraction by the number of cells forming colonies in plates that were not treated with platinum compounds. […] Similar data for OVCAR-10 are shown in FIG. 3, comparing (1R,2R)-pyrodach-2 (RD2), (1R,2R)-pyrodach-4 (RD4), trans-(±)-pyrodach-2 (T-D2), and trans-(±)-pyrodach-4 (T-D4).

The subject of data set [4] is SKMEL-2, human skin melanoma cancer cells. Put plainly: CyQUANT cell proliferation assay, SKMEL-2. Format: cell-based. To be noted: SKMEL-2, 72-hour treatment.
Source text: as §1, §2

In data set [5] the test system is A2780, epithelial human ovarian cancer. The experiment in a line: Clonogenic assay, A2780 cells. The class given is cell-based. On the procedure:
as §3
as §4, with “and the treated cells were placed back into the 37° C. incubator for 24 hours.” left out, “After the 24-hour treatment, the medium containing the platinum compounds was decanted and was replaced with fresh medium.” left out
as §2, §5

For data set [6], the system named is MCF-7, human breast cancer cells. Put plainly: CyQUANT cell proliferation assay, MCF-7. Format: cell-based. The conditions noted are these: MCF-7, 72-hour treatment.
Source text: as §1, §2

For data set [7], the system named is OVCAR-10, human ovarian cancer resistant to cisplatin treatment. Put plainly: CyQUANT cell proliferation assay, OVCAR-10. Format: cell-based. The conditions noted are these: OVCAR-10, 72-hour treatment.
Source text: as §1, §2

Data set [8] deals with OVCAR-8, human ovarian cancer cells with dysfunctional p53. The experiment in a line: CyQUANT cell proliferation assay, OVCAR-8. The class given is cell-based. To be noted: OVCAR-8, 72-hour treatment.
Source text: as §1, §2

The test system of data set [9] is Ovarian tumor. The experiment in a line: Ovarian tumor inflicted SCID mice, tumor growth and log cell kill. The class given is in vivo. The conditions noted are these: 7 mg/kg. On the procedure:
Ovarian tumor inflicted SCID mice were treated with trans-(±)-pyrodach-2 and trans-(±)-pyrodach-4 at various doses up to 40 mg/kg, and tumor growth was monitored up to six weeks or until the tumor size became so large that these animals were sacrificed. The tumor growth or regression by the phosphaplatin-treated mice was then compared with cisplatin-treated mice (7 mg/kg) and carboplatin-treated mice (60 mg/kg). Three doses of platinum compounds were administered on alternate days when the tumor grew to a size of at least 100 mm^3 size. Gross and net log cell kill values were then calculated using the formulas:
[formula] [formula] where T and C are median times in days to grow tumor to a specified size, and Td is the median time in days to double the size of the tumor in control animals.

The test system of data set [10] is A2780/C30, epithelial human ovarian cancer resistant to 30 μM cisplatin and 100 μM carboplatin. The experiment in a line: Clonogenic assay, A2780/C30 cells. The conditions noted are these: A2780/C30, 1 hour treatment. Format: cell-based. The procedure:
as §3
as §4, with “and the treated cells were placed back into the 37° C. incubator for 24 hours.” left out
as §2, §5

The subject of data set [11] is PC-3, human metastatic prostate cancer cells. The experiment in a line: CyQUANT cell proliferation assay, PC-3. The class given is cell-based. To be noted: PC-3, 72-hour treatment.
Source text: as §1, §2

Data set [12] relates to A549, human lung adenocarcinoma cancer cells. The experiment in a line: CyQUANT cell proliferation assay, A549. Format: cell-based. To be noted: A549, 72-hour treatment.
Source text: as §1, §2

For the molecule `N.N.[Cl][Pt][Cl]` [cisplatin], the IC50 came to 6.5 µM in data set [1]; 0.75 µM in [2]; 4.1 µM in data set [3]; 5.34 µM in data set [4]; 7 µM in data set [5] (A2780, 1 hour treatment); 5 µM in data set [5] (A2780, 24 hours treatment). For the same molecule, the IC50 in [6] turned out to be 5.1 µM; in [7] it was 3.1 µM; in data set [8], 6.3 µM; in [10] it was 100 µM; in data set [11], 1.08 µM; in data set [12], 2.8 µM. For the same molecule, the “time to death of treated mice” value in data set [9] is reported as at most 7 days. In addition, in [9], the tumor response result is “tumor regression”.

The record behind these values is patent US9688709B2, “Phosphaplatins and their use for treatment of cancers” (OHIO UNIVERSITY, priority 2010, dated 2017).
